Laboratory results published in ChEMBL document CHEMBL5512647, “Cajaninstilbene acid derivatives conjugated with siderophores of 3-hydroxypyridin-4(1H)-ones as novel antibacterial agents against Gram-negative bacteria based on the Trojan horse strategy” (Eur J Med Chem, 2024).
In brackets after ≈: the same amount, converted by molar mass. Activity calls are given as the source filed them. No cut-off for these calls is given here.

Assays:
[1] = tested on: Pseudomonas aeruginosa; assay: Antibacterial activity against Pseudomonas aeruginosa FB measured after 18 to 20 hrs by broth microdilution method; assay type: functional; details: time 18-20 hrs
[2] = tested on: Staphylococcus aureus; assay: Antibacterial activity against Staphylococcus aureus ATCC 25923 measured after 18 to 20 hrs by broth microdilution method; assay type: functional; details: time 18-20 hrs
[3] = tested on: Escherichia coli; assay: Antibacterial activity against Escherichia coli ATCC 25922 measured after 18 to 20 hrs in presence of FeIII cultured under CAA medium by broth microdilution method; assay type: functional; details: time 18-20 hrs
[4] = tested on: Klebsiella pneumoniae; assay: Antibacterial activity against Klebsiella pneumoniae ATCC 700603 measured after 18 to 20 hrs in presence of FeIII cultured under CAA medium by broth microdilution method; assay type: functional; details: time 18-20 hrs
[5] = Cytotoxicity against African green monkey Vero cells at 50 uM measured after 24 hrs by MTT assay; assay type: toxicity, cell-based; details: chlorocebus sabaeus
[6] = tested on: Klebsiella pneumoniae; assay: Antibacterial activity against Klebsiella pneumoniae ATCC 700603 measured after 18 to 20 hrs by broth microdilution method; assay type: functional; details: time 18-20 hrs
[7] = Metal chelating activity assessed as compound-Fe3+ complex formation incubated for 10 mins by CAS assay
[8] = tested on: Escherichia coli; assay: Antibacterial activity against Escherichia coli ATCC 25922 measured after 18 to 20 hrs by broth microdilution method; assay type: functional; details: time 18-20 hrs
[9] = tested on: Pseudomonas aeruginosa; assay: Antibacterial activity against Pseudomonas aeruginosa 27853 measured after 18 to 20 hrs by broth microdilution method; assay type: functional; details: time 18-20 hrs
[10] = tested on: Pseudomonas aeruginosa; assay: Antibacterial activity against Pseudomonas aeruginosa 1121 measured after 18 to 20 hrs by broth microdilution method; assay type: functional; details: time 18-20 hrs
[11] = tested on: Pseudomonas aeruginosa; assay: Antibacterial activity against Pseudomonas aeruginosa PAO1 infected in Caenorhabditis elegans assessed as improvement in survival rate at 50 uM measured after 72 hrs; assay type: functional, organism-based
[12] = tested on: Pseudomonas aeruginosa; assay: Antibacterial activity against Pseudomonas aeruginosa PAO1 measured after 18 to 20 hrs by broth microdilution method; assay type: functional; details: time 18-20 hrs
[13] = tested on: Pseudomonas aeruginosa; assay: Antibacterial activity against Pseudomonas aeruginosa PAO1 measured after 18 to 20 hrs in presence of FeIII cultured under CAA medium by broth microdilution method; assay type: functional; details: time 18-20 hrs
[14] = tested on: Pseudomonas aeruginosa; assay: Antibacterial activity against Pseudomonas aeruginosa 27853 measured after 18 to 20 hrs in presence of FeIII cultured under CAA medium by broth microdilution method; assay type: functional; details: time 18-20 hrs
[15] = tested on: Cell membrane; assay: Induction of outer membrane permeabilization in Pseudomonas aeruginosa PAO1 assessed as increase in accumulation of NPN by measuring fluorescence intensity measured for 1 hr by NPN dye uptake assay; assay type: cell membranes
[16] = tested on: Pseudomonas aeruginosa; assay: Antibacterial activity against Pseudomonas aeruginosa PAO1 delta-pvds measured after 18 to 20 hrs by broth microdilution method; assay type: functional, organism-based; details: time 18-20 hrs
[17] = tested on: Erythrocyte; assay: Hemolytic activity in rabbit red blood cells assessed as hemolysis at 12.5 to 50 uM measured after 2 hrs by microplate reader based analysis; assay type: toxicity, cell-based, Oryctolagus cuniculus; details: dose 12.5-50 µM
[18] = tested on: Pseudomonas aeruginosa; assay: Antibacterial activity against Pseudomonas aeruginosa PAO1 overexpressing fpvA mutant assessed as fold increase in MIC measured after 18 to 20 hrs by broth microdilution method; assay type: functional; details: time 18-20 hrs
[19] = tested on: Pseudomonas aeruginosa; assay: Antibacterial activity against Pseudomonas aeruginosa PAO1 infected in Caenorhabditis elegans assessed as improvement in survival rate at 12.5 to 50 uM measured upto 72 hrs; assay type: functional, organism-based; details: dose 12.5-50 µM
[20] = Cytotoxicity against African green monkey Vero cells at 100 uM measured after 24 hrs by MTT assay; assay type: toxicity, cell-based; details: chlorocebus sabaeus
[21] = Acute toxicity in L4 stage of Caenorhabditis elegans at 12.5 to 50 uM; details: dose 12.5-50 µM
[22] = tested on: Pseudomonas aeruginosa; assay: Antibacterial activity against Pseudomonas aeruginosa PAO1 infected in Caenorhabditis elegans assessed as survival rate at 12.5 to 50 uM measured upto 72 hrs relative to control; assay type: functional; details: dose 12.5-50 µM
[23] = tested on: Cell membrane; assay: Induction of cytoplasmic membrane permeabilization in Pseudomonas aeruginosa PAO1 assessed as disruption of cell membrane integrity by measuring increase in number of dead cells measured after 2 hrs by PI and SYTO9 staining based confocal laser scanning microscopy analysis; assay type: cell membranes

SMILES | MIC [1] [µM] | MIC [2] [µM] | MIC [6] [µM] | MIC [8] [µM] | MIC [9] [µM] | MIC [10] [µM] | MIC [12] [µM] | other results
COc1cc(/C=C/c2ccc(F)cc2)c(C(=O)O)c(O)c1CC=C(C)C | > 250 | 15.6 (≈ 5.56 µg/mL) | > 250 | > 250 | > 250 | > 250 | > 250 | MIC [3]: > 250 µM; MIC [4]: > 250 µM; Activity [5]: Non-Toxic; Activity [7]: inactive; Activity [11]: inactive; MIC [13]: > 250 µM; MIC [14]: > 250 µM
CC(C)=CCc1c(OCc2cn(CCCn3cc(O)c(=O)cc3C)nn2)cc(/C=C/c2ccc(F)cc2)c(C(=O)O)c1O | > 250 | > 250 | > 250 | > 250 | 31.2 (≈ 18.4 µg/mL) | > 250 | 31.2 (≈ 18.4 µg/mL) | 
CC(C)=CCc1c(OCCCCCCC(=O)NCc2c(O)c(=O)cc(C)n2C)cc(CSc2ccc(F)cc2)c(C(=O)O)c1O | > 250 | > 250 | > 250 | > 250 | > 250 | > 250 | > 250 | 
CC(C)=CCc1c(OCc2cn(Cc3cc(=O)c(O)cn3C)nn2)cc(/C=C/c2ccc(F)cc2)c(C(=O)O)c1O | > 250 | > 250 | > 250 | > 250 | > 250 | > 250 | > 250 | 
CC1(C)S[C@@H]2[C@H](NC(=O)[C@H](N)c3ccccc3)C(=O)N2[C@H]1C(=O)O [AMPICILLIN] | > 250 | 0.24 (≈ 0.0839 µg/mL) | > 250 | 1.95 (≈ 0.681 µg/mL) | > 250 | > 250 | 125 (≈ 43.7 µg/mL) | MIC [3]: 3.9 µM; MIC [4]: > 250 µM; MIC [13]: 62.5 µM; MIC [14]: > 250 µM
CC(C)=CCc1c(OCCCCCC(=O)NCc2c(O)c(=O)cc(C)n2C)cc(CSc2ccc(F)cc2)c(C(=O)O)c1O | > 250 | > 250 | > 250 | > 250 | > 250 | > 250 | > 250 | 
COc1cc(CSc2ccc(F)cc2)c(C(=O)O)c(O)c1CC=C(C)C | > 250 | 62.5 (≈ 23.5 µg/mL) | > 250 | > 250 | > 250 | > 250 | > 250 | 
CC(C)=CCc1c(OCCCCCCCC(=O)NCc2cc(=O)c(O)cn2C)cc(/C=C/c2ccc(F)cc2)c(C(=O)O)c1O | 31.2 (≈ 19.4 µg/mL) | > 250 | > 250 | > 250 | 15.6 (≈ 9.68 µg/mL) | 15.6 (≈ 9.68 µg/mL) | 7.8 (≈ 4.84 µg/mL) | MIC [3]: > 250 µM; MIC [4]: > 250 µM; Activity [15]: Active; Activity [5]: Non-Toxic; Activity [7]: Active; Activity [16]: Active; Activity [17]: Non-Toxic; fold change (FC) [18]: 4; Activity [19]: Active; Activity [20]: Toxic; Activity [21]: Non-Toxic; Survival [22]: 50%; MIC [13]: > 250 µM; Activity [23]: Dose-Dependent Effect; MIC [14]: > 250 µM
CCn1cc(C(=O)O)c(=O)c2cc(F)c(N3CCNCC3)cc21 [NORFLOXACIN] | 3.9 (≈ 1.25 µg/mL) | 7.8 (≈ 2.49 µg/mL) | 31.2 (≈ 9.98 µg/mL) | 0.49 (≈ 0.156 µg/mL) | 15.6 (≈ 4.98 µg/mL) | 3.9 (≈ 1.25 µg/mL) | 1.95 (≈ 0.623 µg/mL) | MIC [3]: 0.49 µM; MIC [4]: 31.2 µM; MIC [13]: 1.95 µM; MIC [14]: 15.6 µM
CC(C)=CCc1c(OCCCCCCC(=O)NCc2cc(=O)c(O)cn2C)cc(/C=C/c2ccc(F)cc2)c(C(=O)O)c1O | 31.2 (≈ 19 µg/mL) | > 250 | > 250 | > 250 | 15.6 (≈ 9.46 µg/mL) | 15.6 (≈ 9.46 µg/mL) | 7.8 (≈ 4.73 µg/mL) | MIC [3]: > 250 µM; MIC [4]: > 250 µM; Activity [15]: Dose-Dependent Effect; Activity [5]: Non-Toxic; Activity [7]: Active; Activity [16]: Active; Activity [17]: Non-Toxic; fold change (FC) [18]: 4; Activity [19]: Active; Activity [20]: Toxic; Activity [21]: Non-Toxic; Survival [22]: 50%; MIC [13]: > 250 µM; Activity [23]: Dose-Dependent Effect; MIC [14]: > 250 µM
CC(C)=CCc1c(OCCCCCC(=O)NCc2cc(=O)c(O)cn2C)cc(CSc2ccc(F)cc2)c(C(=O)O)c1O | > 250 | > 250 | > 250 | > 250 | > 250 | > 250 | > 250 | 
CCCCCCCC(=O)NCc1cc(=O)c(O)cn1C | > 250 | > 250 | > 250 | > 250 | > 250 | > 250 | > 250 | 
CC(C)=CCc1c(OCCCCCCCC(=O)NCc2c(O)c(=O)cc(C)n2C)cc(CSc2ccc(F)cc2)c(C(=O)O)c1O | > 250 | > 250 | > 250 | > 250 | > 250 | > 250 | > 250 | 
CCCCCCC(=O)NCc1cc(=O)c(O)cn1C | > 250 | > 250 | > 250 | > 250 | > 250 | > 250 | > 250 | 
CC(C)=CCc1c(OCc2cn(CCn3cc(O)c(=O)cc3C)nn2)cc(/C=C/c2ccc(F)cc2)c(C(=O)O)c1O | 250 (≈ 144 µg/mL) | > 250 | > 250 | > 250 | 62.5 (≈ 35.9 µg/mL) | 250 (≈ 144 µg/mL) | 125 (≈ 71.8 µg/mL) | 

Second part, led by results:

MIC [1] [µM] | MIC [2] [µM] | MIC [6] [µM] | MIC [8] [µM] | MIC [9] [µM] | MIC [10] [µM] | MIC [12] [µM] | SMILES | other results
> 250 | > 250 | > 250 | > 250 | > 250 | > 250 | > 250 | CC(C)=CCc1c(OCCCCCC(=O)NCc2c(O)c(=O)cc(C)n2C)cc(/C=C/c2ccc(F)cc2)c(C(=O)O)c1O | 
31.2 (≈ 18.1 µg/mL) | > 250 | > 250 | > 250 | 31.2 (≈ 18.1 µg/mL) | 31.2 (≈ 18.1 µg/mL) | 31.2 (≈ 18.1 µg/mL) | CC(C)=CCc1c(OCCCCC(=O)NCc2cc(=O)c(O)cn2C)cc(/C=C/c2ccc(F)cc2)c(C(=O)O)c1O | 
> 250 | > 250 | > 250 | > 250 | 31.2 (≈ 18.5 µg/mL) | 31.2 (≈ 18.5 µg/mL) | 31.2 (≈ 18.5 µg/mL) | CC(C)=CCc1c(OCCCCCC(=O)NCc2cc(=O)c(O)cn2C)cc(/C=C/c2ccc(F)cc2)c(C(=O)O)c1O | 
> 250 | > 250 | > 250 | > 250 | > 250 | > 250 | 7.81 (≈ 4.85 µg/mL) | CC(C)=CCc1c(OCCCCCCC(=O)NCc2c(O)c(=O)cc(C)n2C)cc(/C=C/c2ccc(F)cc2)c(C(=O)O)c1O | 
> 250 | > 250 | > 250 | > 250 | 31.2 (≈ 19.4 µg/mL) | > 250 | 7.8 (≈ 4.84 µg/mL) | CCn1cc(O)c(=O)cc1CNC(=O)CCCCCCOc1cc(/C=C/c2ccc(F)cc2)c(C(=O)O)c(O)c1CC=C(C)C | 
> 250 | > 250 | > 250 | > 250 | > 250 | > 250 | > 250 | CC(C)=CCc1c(OCCCCCCCC(=O)NCc2cc(=O)c(O)cn2C)cc(CSc2ccc(F)cc2)c(C(=O)O)c1O | 
> 250 | > 250 | > 250 | > 250 | 31.2 (≈ 19.8 µg/mL) | > 250 | 7.8 (≈ 4.95 µg/mL) | CCCn1cc(O)c(=O)cc1CNC(=O)CCCCCCOc1cc(/C=C/c2ccc(F)cc2)c(C(=O)O)c(O)c1CC=C(C)C | 
> 250 | > 250 | > 250 | > 250 | > 250 | > 250 | 7.8 (≈ 4.89 µg/mL) | CC(C)=CCc1c(OCCCCCCC(=O)NCc2cc(=O)c(O)cn2C)cc(CSc2ccc(F)cc2)c(C(=O)O)c1O | 
> 250 | > 250 | > 250 | > 250 | > 250 | > 250 | 15.6 (≈ 10.7 µg/mL) | CC(C)=CCc1c(OCc2cn(CCCCCCC(=O)NCc3cc(=O)c(O)cn3C)nn2)cc(/C=C/c2ccc(F)cc2)c(C(=O)O)c1O | 
> 250 | > 250 | > 250 | > 250 | > 250 | > 250 | > 250 | CC(C)=CCc1c(OCCCCCCCC(=O)NCc2c(O)c(=O)cc(C)n2C)cc(/C=C/c2ccc(F)cc2)c(C(=O)O)c1O | 
